The results in this text go back to patent publication US11071738B2, “Therapeutic agent for fatty liver diseases and therapeutic agent for adiposity” (Hiroshima University, priority 2017, dated 2021).

Like-named read-outs stand apart in the source and are kept apart here.

Data set [1] has as its target T1, Pin1 (Homo sapiens, UniProt Q13526).
T1 construct: endogenous in cells; host or cells: 293T cells
The data set is described as follows: Cell-based Pin1 inhibition assay with AMPK phosphorylation level as index. Also on record: key to Pin1 inhibition activity: +++: a higher level of AMPK phosphorylation is promoted, as compared with C1; ++: a similar level of AMPK phosphorylation is promoted, as compared with C1; +: a lower level of AMPK phosphorylation is promoted, as compared with C1; −: no or almost no promotion is found in AMPK phosphorylation. The conditions noted are these: 293T cells, compound at 100 μM; for Pin1 inhibition activity: 10 mM 2-DG, pAMPK blot compared with C1. The method, then:
To evaluate the inhibitory activity of each synthesized compound against the function of Pin1, a cell-based assay was performed according to the method previously developed by the inventors (Yusuke Nakatsu et al., Journal of Biological Chemistry, 2015, Vol. 290, No. 40, pp. 24255-24266), in which the phosphorylation level of AMPK (AMP-activated protein kinase), a protein whose phosphorylation is inhibited by Pin1, was examined as an index.
Briefly, 293T cells were plated on a collagen-coated 24-well plate. Forty-eight hours later, each compound synthesized in the preceding example (at 100 μM) was added to the plate, and the plate was left to stand in an incubator for 30 minutes. Subsequently, 10 mM 2-DG was added to the plate, and one hour later, each sample was collected with a buffer containing mercaptoethanol and SDS.
SDS-PAGE and blotting were performed, and blocking was then performed with 3% BSA for 1 hour, according to conventional protocols. Subsequently, a pAMPK antibody (Cell Signaling; diluted 1:2000 in Can Get Signal Solution 1, Toyobo) as a primary antibody, and an HRP-linked anti rabbit IgG (GE Healthcare; diluted 1:4000 in Can Get Signal Solution 2, Toyobo) as a secondary antibody were allowed to react at ambient temperature for 1 hour prior to detection.
The inhibitory activity against the function of Pin1 was evaluated by comparing the inhibition levels between each compound and a known Pin1 inhibitor, C1, as indicated below: […]

The subject of data set [2] is NASH mice (MCDD). Put plainly: NASH treatment study in mice fed a methionine-choline-deficient diet (MCDD). It counts as in vivo, mice (C57BL/6J). The conditions noted are these: NASH mice given MCDD, i.p. 2.5 mg/kg/day three times a week. The protocol:
Next, an animal experiment was performed on NASH mice that were produced by feeding a methionine-choline-deficient diet (MCDD).

The test system of data set [3] is NASH model mice (HFDT). The conditions noted are these: HFDT NASH mice. The protocol: Animal experiments were performed using non-alcoholic steatohepatitis (NASH) model mice to test the compounds synthesized in Examples for the therapeutic effect on NASH.
NASH model mice (hereinafter referred to as “NASH mice”) were produced by feeding a high-fat diet containing trans fatty acids (HFDT) to individual male laboratory mice (C57BL/6J) for 8 weeks. […] In addition, a normal diet was given to individual male laboratory mice (C57BL/6J) for 8 weeks to prepare control mice.

Where [4] appears, read: 8 weeks, i.p. 2.5 mg/kg/day or oral 5.0 mg/kg/day three times a week.
Setting [5] is: 8 weeks, oral 5.0 mg/kg/day three times a week.

T1 sequence (Q13526 whole entry): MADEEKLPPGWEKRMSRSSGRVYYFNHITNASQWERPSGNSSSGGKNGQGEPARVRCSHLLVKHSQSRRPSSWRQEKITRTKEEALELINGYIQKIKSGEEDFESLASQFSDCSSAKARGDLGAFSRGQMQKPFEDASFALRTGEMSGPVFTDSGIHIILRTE

With `O=C(O[C@H](Cc1ccc2ccccc2c1)C(=O)OCc1ccccc1)c1ccc2ccccc2c1` [Compound H-21], in data set [1], the Pin1 inhibition activity result was “− (Hydrolysis causes conversion to H-30, which is active)”.

As to `O=C(O[C@H](Cc1ccc2ccccc2c1)C(=O)O)c1ccc(C(O)c2ccccc2)cc1` (stereo partly shown) [Compound H-23], the Pin1 inhibition activity entry in data set [1] is listed as “++”.

Turning to `O=C(O[C@H](Cc1ccc2ccccc2c1)C(=O)O)c1ccc2ccccc2c1` [Compound H-30], the Pin1 inhibition activity result in data set [1] is given as “++”.

On to `O=C(O[C@H](Cc1ccc2ccccc2c1)C(=O)O)C1c2ccccc2-c2ccccc21` [Compound H-31], for which the “hepatic fibrosis (Azan staining)” value in data set [2] (8 weeks) is “significantly inhibited”. In data set [2], the “Collagen 1a1 mRNA expression level” value is recorded as “reduced”, the “Collagen 1a2 mRNA expression level” value is “reduced” and the “SMA mRNA expression level” value is recorded as “reduced”. The Pin1 inhibition activity entry in data set [1] is listed as “+++”.

Consider `COc1ccc(-c2cc(C(=O)O[C@H](Cc3ccc4ccccc4c3)C(=O)O)c(C)o2)cc1` [Compound H-32], for which the Pin1 inhibition activity entry in data set [1] is recorded as “+”.

Regarding `O=C(O[C@H](Cc1ccc2ccccc2c1)C(=O)O)c1ccc(-c2ccccc2)cc1` [Compound H-33], the Pin1 inhibition activity entry in data set [1] is listed as “+”.

In the case of `COC(=O)c1ccc2cc(C(=O)N[C@H](Cc3ccc4ccccc4c3)C(=O)O)ccc2c1` [Compound H-62], in data set [1], the Pin1 inhibition activity result is recorded as “+”.

Take `O=C(O)[C@@H](Cc1ccc2ccccc2c1)NC(=O)C1(O)c2ccccc2-c2ccccc21` [Compound H-101]: the Pin1 inhibition activity result in data set [1] is “++”.

Turning to `O=C(CC1c2ccccc2-c2ccccc21)N[C@H](Cc1ccc2ccccc2c1)C(=O)O` [Compound H-103], in data set [1], the Pin1 inhibition activity entry is given as “+++”.

Regarding `O=C(N[C@H](Cc1ccc2ccccc2c1)C(=O)OCc1ccccc1)C1c2ccccc2-c2ccccc21` [Compound H-105], the Pin1 inhibition activity entry in data set [1] is listed as “− (Hydrolysis causes conversion to H-109, which is active)”. Also, the “Pin1 inhibition activity (in words)” value in data set [1] (cell-based assay) is reported as “no Pin1 inhibition activity”.

Take `O=C(CC1c2ccccc2-c2ccccc21)O[C@H](Cc1ccc2ccccc2c1)C(=O)O` [Compound H-106]: in data set [1], the Pin1 inhibition activity entry is reported as “++”.

For `O=C(N[C@H](Cc1ccc2ccccc2c1)C(=O)O)C1c2ccccc2-c2ccccc21` [Compound H-109], in data set [1], the Pin1 inhibition activity result is reported as “+++”.

Turning to `O=C(O[C@H](Cc1ccc2ccccc2c1)C(=O)O)c1ccc(Oc2ccccc2)cc1` [Compound H-123], the Pin1 inhibition activity result in data set [1] is given as “++”.

As to `O=C(O[C@H](Cc1ccc2ccccc2c1)C(=O)O)c1cccc(Oc2ccccc2)c1` [Compound H-130], in data set [1], the Pin1 inhibition activity entry is “++”.

For the compound `O=C(O[C@H](Cc1ccc2ccccc2c1)C(=O)O)c1ccccc1Oc1ccccc1` [Compound H-132], the Pin1 inhibition activity entry in data set [1] was “+”.

`O=C(O[C@H](Cc1ccc2ccccc2c1)C(=O)O)C(c1ccccc1)c1ccccc1` [Compound H-134]: in data set [1], the Pin1 inhibition activity entry is “++”.

As for `O=C(O[C@@H](Cc1ccc2ccccc2c1)C(=O)O)C1c2ccccc2-c2ccccc21` [Compound H-141], the Pin1 inhibition activity result in data set [1] is listed as “+++”.

As for `COC(=O)[C@@H](Cc1ccc2ccccc2c1)NC(=O)n1c2ccccc2c2ccccc21` [Compound H-144], in data set [3] (setting [4]), the “blood ALT (GPT) value, index of liver inflammation” value was “decreased”; the “fasting blood glucose level” value was “no significant abnormality”; the “increase in liver weight” value was “significantly reduced”.

`O=C(Cc1ccc2ccccc2c1)O[C@H](Cc1ccc2ccccc2c1)C(=O)O` [Compound H-149]: the Pin1 inhibition activity entry in data set [1] is recorded as “+”.

As to `O=C(Cc1cccc2ccccc12)O[C@H](Cc1ccc2ccccc2c1)C(=O)O` [Compound H-151], the Pin1 inhibition activity entry in data set [1] is “++”.

Take `O=C(O)[C@@H](Cc1ccc2ccccc2c1)OC(=O)N1c2ccccc2Oc2ccccc21` [Compound H-157]: the Pin1 inhibition activity entry in data set [1] is recorded as “++”.

In the case of `O=C(Cc1ccc2ccccc2c1)N[C@H](Cc1ccc2ccccc2c1)C(=O)O` [Compound H-158], the Pin1 inhibition activity entry in data set [1] was “++”.

Take `O=C(O)[C@@H](Cc1ccc2ccccc2c1)NC(=O)N(c1ccccc1)c1ccccc1` [Compound H-161]: the Pin1 inhibition activity entry in data set [1] is given as “++”.

On to `O=C(O)[C@@H](Cc1ccc2ccccc2c1)NC(=O)N1c2ccccc2Oc2ccccc21` [Compound H-162], for which the Pin1 inhibition activity result in data set [1] is “++”.

Regarding `O=C(O)[C@@H](Cc1ccc2ccccc2c1)NC(=O)N1c2ccccc2C=Cc2ccccc21` [Compound H-164], in data set [1], the Pin1 inhibition activity entry is recorded as “+”.

In the case of `O=C(O)[C@@H](Cc1ccc2ccccc2c1)OC(=O)n1c2ccccc2c2ccccc21` [Compound H-175], the Pin1 inhibition activity result in data set [1] is listed as “+++”.

Regarding `O=C(COc1ccccc1)O[C@H](Cc1ccc2ccccc2c1)C(=O)O` [Compound H-176], the Pin1 inhibition activity entry in data set [1] was “++”.

Turning to `O=C(COc1ccc2ccccc2c1)O[C@H](Cc1ccc2ccccc2c1)C(=O)O` [Compound H-177], the Pin1 inhibition activity result in data set [1] is listed as “++”.

For the compound `O=C(O)[C@@H](Cc1ccc2ccccc2c1)NC(=O)N1c2ccccc2CCc2ccccc21` [Compound H-178], the Pin1 inhibition activity result in data set [1] is on record as “+++”.

In the case of `O=C(COc1cccc2ccccc12)O[C@H](Cc1ccc2ccccc2c1)C(=O)O` [Compound H-179], the Pin1 inhibition activity entry in data set [1] is recorded as “+++”.

As to `O=C(Cc1c[nH]c2ccccc12)O[C@H](Cc1ccc2ccccc2c1)C(=O)O` [Compound H-180], in data set [1], the Pin1 inhibition activity result is on record as “++”.

Consider `COc1cc(OC)cc(C(=O)O[C@H](Cc2ccc3ccccc3c2)C(=O)O)c1` [Compound H-198], for which the Pin1 inhibition activity entry in data set [1] is “+”.

For `O=C(O[C@H](Cc1ccc2ccccc2c1)C(=O)O)c1cc(Cl)cc(Cl)c1` [Compound H-200], in data set [1], the Pin1 inhibition activity entry is “+”.

With `Cc1cc(C)cc(C(=O)O[C@H](Cc2ccc3ccccc3c2)C(=O)O)c1` [Compound H-210], in data set [1], the Pin1 inhibition activity result is reported as “+”.

`CN(C)c1ccc(C(=O)O[C@H](Cc2ccc3ccccc3c2)C(=O)O)cc1` [Compound H-212]: the Pin1 inhibition activity result in data set [1] is “+”.

Turning to `CC(C)(C)OC(=O)N[C@@H](Cc1ccccc1)C(=O)O[C@H](Cc1ccc2ccccc2c1)C(=O)O` [Compound H-248], the Pin1 inhibition activity result in data set [1] is given as “+”.

Turning to `Cc1ccc(C(=O)O[C@H](Cc2ccc3ccccc3c2)C(=O)O)cc1C` [Compound H-265], the Pin1 inhibition activity result in data set [1] is “+”.

Consider `COc1ccc(C(=O)O[C@H](Cc2ccc3ccccc3c2)C(=O)O)cc1OC` [Compound H-266], for which the Pin1 inhibition activity result in data set [1] is listed as “+”.

As for `O=C(O[C@H](Cc1ccc2ccccc2c1)C(=O)O)c1ccc(Cl)c(Cl)c1` [Compound H-269], the Pin1 inhibition activity result in data set [1] is “+”.

For the compound `O=C(O[C@H](Cc1ccc2ccccc2c1)C(=O)O)c1ccc(F)c(F)c1` [Compound H-270], the Pin1 inhibition activity entry in data set [1] is recorded as “+”.

With `O=C(Nc1ccccc1Oc1ccccc1)N[C@H](Cc1ccc2ccccc2c1)C(=O)O` [Compound H-334], the Pin1 inhibition activity entry in data set [1] was “+++”.

`O=C(Nc1ccc(C(=O)c2ccccc2)cc1)N[C@H](Cc1ccc2ccccc2c1)C(=O)O` [Compound H-341]: in data set [1], the Pin1 inhibition activity entry is “++”.

On to `COC(=O)[C@@H](Cc1ccc2ccccc2c1)NC(=O)CN1c2ccccc2C2C=CC=CC21` (stereo partly shown) [Compound H-521], for which the Pin1 inhibition activity result in data set [1] was “+”.

`O=C(Cn1c2ccccc2c2ccccc21)N[C@H](Cc1ccc2ccccc2c1)C(=O)O` [Compound H-536]: in data set [1], the Pin1 inhibition activity entry is “+”.

On to `O=C1C=CC(=O)c2c(O)cccc21` [Juglone, reference compound], for which, in data set [3] (setting [5]), the “fasting blood glucose level” value is listed as “abnormal increase” and the “increase in liver weight” value is reported as “significantly reduced”. Also, the death of mice result in data set [3] (i.p. 2.5 mg/kg/day three times a week) is listed as “all dead within 8 weeks”. The death of mice entry in data set [3] (oral 5.0 mg/kg/day three times a week) is on record as “not dead”.
